Holding throughout (assay type): functional
Assay [1] has as its system Chryseobacterium indologenes. Put plainly: Antimicrobial activity against Chryseobacterium indologenes 597 expressing metallo-beta-lactamase IND-6 after 18 hrs by broth microdilution method. The conditions noted are these: Chryseobacterium indologenes, 597, 18 h.
For assay [2], the system named is Escherichia coli. Put plainly: Antimicrobial activity against Escherichia coli DH5alpha harboring metallo-beta-lactamase IND-6 after 18 hrs by broth microdilution method. Conditions: DH5[alpha].
Assay [3] deals with Escherichia coli. Put plainly: Antimicrobial activity against Escherichia coli DH5alpha harboring plasmid pBC-SK after 18 hrs by broth microdilution method. Conditions: DH5[alpha].
Assay [4] concerns Chryseobacterium indologenes. Description: Antimicrobial activity against Chryseobacterium indologenes 597 expressing metallo-beta-lactamase IND-6 after 18 hrs by broth microdilution method in presence of beta-lactamase inhibitor clavulanic acid. Conditions: Chryseobacterium indologenes, 597, 18 h.
Assay [5] concerns Chryseobacterium indologenes. Put plainly: Antimicrobial activity against Chryseobacterium indologenes 597 expressing metallo-beta-lactamase IND-6 after 18 hrs by broth microdilution method in presence of beta-lactamase inhibitor Tazobactam. The conditions noted are these: Chryseobacterium indologenes, 597, 18 h.

SMILES strings stand for the structures. ≈ marks a conversion by molar mass, not a printed value.

`CC1(C)S[C@@H]2[C@H](NC(=O)[C@H](N)c3ccccc3)C(=O)N2[C@H]1C(=O)O` [AMPICILLIN]: the minimal inhibitory concentration (MIC) was no less than 64 mg/L in assay [1] and 32 mg/L (≈ 91.6 µM) with Escherichia coli [2].
Taken in the same sequence, the figures for `C[C@@H](O)[C@H]1C(=O)N2C(C(=O)O)=C(SCCNC=N)C[C@H]12` [IMIPENEM ANHYDROUS] were no less than 64 mg/L and 1 mg/L (≈ 3.34 µM).
Regarding `C[C@H]1[C@H](NC(=O)/C(=N\OC(C)(C)C(=O)O)c2csc(N)n2)C(=O)N1S(=O)(=O)O` [AZTREONAM], the MIC against Escherichia coli [2] and against Escherichia coli [3] was 0.25 mg/L (≈ 0.574 µM) each time.
On to `CO/N=C(\C(=O)N[C@@H]1C(=O)N2C(C(=O)O)=C(COC(N)=O)CS[C@H]12)c1ccco1` [CEFUROXIME], for which the MIC in assay [1] was no less than 64 mg/L; in the assay on Escherichia coli [2], 32 mg/L (≈ 75.4 µM); in the assay with Escherichia coli [3], 2 mg/L (≈ 4.71 µM).
As for `CC1(C)S[C@@H]2[C@H](NC(=O)[C@H](N)c3ccc(O)cc3)C(=O)N2[C@H]1C(=O)O` [AMOXICILLIN], the MIC in assay [4] is no less than 64 mg/L.
For the molecule `CC(=O)OCC1=C(C(=O)O)N2C(=O)[C@@H](NC(=O)Cc3cccs3)[C@H]2SC1` [CEPHALOTHIN], the results for the MIC (in assay [1]; against Escherichia coli [2]; with Escherichia coli [3]) were no less than 64 mg/L, 64 mg/L (≈ 161 µM) and 4 mg/L (≈ 10.1 µM), respectively.
As for `C[C@@H](O)[C@H]1C(=O)N2C(C(=O)O)=C(S[C@@H]3CN[C@H](C(=O)N(C)C)C3)[C@H](C)[C@H]12` [MEROPENEM], the MIC in assay [1] was 8 mg/L (≈ 20.9 µM); with Escherichia coli [2] it was 0.12 mg/L (≈ 0.313 µM); against Escherichia coli [3], 0.03 mg/L (≈ 0.0782 µM).
Regarding `CC1(C)S[C@@H]2[C@H](NC(=O)[C@H](C(=O)O)c3ccsc3)C(=O)N2[C@H]1C(=O)O` [TICARCILLIN], the MIC against Escherichia coli [2] was 256 mg/L (≈ 666 µM); in the assay with Escherichia coli [3], 4 mg/L (≈ 10.4 µM).
For the molecule `CC(C)(O/N=C(\C(=O)N[C@@H]1C(=O)N2C(C(=O)[O-])=C(C[n+]3ccccc3)CS[C@H]12)c1csc(N)n1)C(=O)O` [CEFTAZIDIME], the MIC in assay [1] amounted to 8 mg/L (≈ 14.6 µM); in the assay on Escherichia coli [2], 1 mg/L (≈ 1.83 µM); against Escherichia coli [3], 0.12 mg/L (≈ 0.22 µM).
As to `CO/N=C(\C(=O)N[C@@H]1C(=O)N2C(C(=O)[O-])=C(C[N+]3(C)CCCC3)CS[C@H]12)c1csc(N)n1` [CEFEPIME], the results for the minimal inhibitory concentration (MIC) (in assay [1]; in the assay with Escherichia coli [2]; in the assay on Escherichia coli [3]) were 1 mg/L (≈ 2.08 µM), 0.12 mg/L (≈ 0.25 µM) and 0.03 mg/L (≈ 0.0624 µM), respectively.
For `CO/N=C(\C(=O)N[C@@H]1C(=O)N2C(C(=O)O)=C(CSc3nc(=O)c(O)nn3C)CS[C@H]12)c1csc(N)n1` [CEFTRIAXONE], the values for the MIC against Escherichia coli [2] and in the assay on Escherichia coli [3] were 0.12 mg/L (≈ 0.216 µM) and 0.03 mg/L (≈ 0.0541 µM), respectively.
On to `CO[C@@]1(NC(=O)Cc2cccs2)C(=O)N2C(C(=O)O)=C(COC(N)=O)CS[C@@H]21` [CEFOXITIN], for which the MIC in assay [1] is 16 mg/L (≈ 37.4 µM); against Escherichia coli [2], 16 mg/L (≈ 37.4 µM); with Escherichia coli [3], 2 mg/L (≈ 4.68 µM).
`CO[C@@]1(NC(=O)C(C(=O)O)c2ccsc2)C(=O)N2[C@@H](C(=O)O)C(C)(C)S[C@@H]21` (stereo partly specified) [TEMOCILLIN]: the minimum inhibitory concentration (MIC) in the assay on Escherichia coli [2] worked out at 16 mg/L (≈ 38.6 µM); in the assay on Escherichia coli [3] it was 4 mg/L (≈ 9.65 µM).
As for `CO/N=C(\C(=O)N[C@@H]1C(=O)N2C(C(=O)O)=C(COC(C)=O)CS[C@H]12)c1csc(N)n1` [CEFOTAXIME], the MIC worked out at 32 mg/L (≈ 70.3 µM) in assay [1], 0.5 mg/L (≈ 1.1 µM) in the assay on Escherichia coli [2] and 0.12 mg/L (≈ 0.263 µM) against Escherichia coli [3].
For `CCN1CCN(C(=O)N[C@@H](C(=O)N[C@@H]2C(=O)N3[C@@H]2SC(C)(C)[C@@H]3C(=O)O)c2ccccc2)C(=O)C1=O` [PIPERACILLIN], the values for the MIC in assay [1] and in assay [5] were 4 mg/L (≈ 7.73 µM) and 4 mg/L, respectively.

The values above are taken from ChEMBL document CHEMBL1649237, “IND-6, a highly divergent IND-type metallo-beta-lactamase from Chryseobacterium indologenes strain 597 isolated in Burkina Faso” (2009).
